The subject of data set [1] is normal hematopoietic progenitor cells (normal bone marrow MNC). Put plainly: CFU-GM colony formation of normal hematopoietic progenitor cells. It counts as cell-based, human. The note with it: Table 3; 40 μg/ml at 0 h, 20 μg/ml 18 h later; 12 days; mean ± SD; control 263 ± 10. The source says: (§1) Normal bone marrow mononuclear cells (MNC) were obtained by aspiration from consenting volunteers and enriched for hematopoietic progenitors as previously reported by numerous investigators (Zamecnick et al., Proc. Natl. Acad. Sci. U.S.A. 83, 4143-4147 (1986); Caracciolo et al., J. Clin. Invest. 85, 55-61 (1990)). In brief, marrow cells were subjected to Ficoll-Hypaque density gradient sedimentation and then depleted of adherent monocyte-macrophage and T-lymphocytes by adherence to plastic Petri dishes and rosetting with neuraminidase-treated sheep red blood cells, respectively. Philadelphia chromosome-positive blast cells were isolated by Ficoll-Hypaque density gradient sedimentation from a CML patient in blast crisis (L-6 type junction). […] The residual non-blast cells had the morphological appearance of small lymphocytes. 25,000 MNC and 25,000 CML blast cells were combined and incubated with bcr-abl breakpoint-Specific antisense oligomer (SEQ ID NO:3) (40 μg/ml at h 0; 20 μg/ml 18 hours later) or with a 4 nucleotide mismatch bcr-abl antisense oligomer (SEQ ID NO:2) (40 μg/ml at 0 h; 20 μg/ml 18 hours later) or left untreated. […] At the end of the incubation period colonies were counted. […]

Data set [2] deals with CML blast crisis cells (L-6 type junction). Put plainly: CFU-L colony formation of CML blast crisis cells (Example 3). It counts as cell-based, human. The source says: Normal bone marrow mononuclear cells (MNC) were obtained by aspiration from consenting volunteers and enriched for hematopoietic progenitors as previously reported by numerous investigators (Zamecnick et al., Proc. Natl. Acad. Sci. U.S.A. 83, 4143-4147 (1986); Caracciolo et al., J. Clin. Invest. 85, 55-61 (1990)). In brief, marrow cells were subjected to Ficoll-Hypaque density gradient sedimentation and then depleted of adherent monocyte-macrophage and T-lymphocytes by adherence to plastic Petri dishes and rosetting with neuraminidase-treated sheep red blood cells, respectively. Philadelphia chromosome-positive blast cells were isolated by Ficoll-Hypaque density gradient sedimentation from a CML patient in blast crisis (L-6 type junction). […] The residual non-blast cells had the morphological appearance of small lymphocytes. 25,000 MNC and 25,000 CML blast cells were combined and incubated with bcr-abl breakpoint-Specific antisense oligomer (SEQ ID NO:3) (40 μg/ml at h 0; 20 μg/ml 18 hours later) or with a 4 nucleotide mismatch bcr-abl antisense oligomer (SEQ ID NO:2) (40 μg/ml at 0 h; 20 μg/ml 18 hours later) or left untreated. Four hours after the second addition of oligonucleotides to the cultures, cells were seeded into duplicate methylcellulose dishes containing IL-3 (20 U/ml) and GM-CSF (5 ng/ml) and allowed to grow for an additional 12 days. At the end of the incubation period colonies were counted.
The data is shown in Table 3, below, wherein values represent mean ± standard deviation of duplicate control cultures (no oligonucleotide added) and duplicate experimental cultures from two separate experiments. Colony forming unit-granulocyte macrophage (CFU-GM)-derived colonies consisted of 50 or more cell aggregates, while CFU-GM-derived clusters were defined as aggregates of between 4 and 40 cells. These are normal hematopoietic colonies derived from progenitors with the capability to differentiate along the granulocytic and macrophage lineages. […]

The subject of data set [3] is β2-microglobulin transcript. Put plainly: β2-microglobulin transcript in residual colonies (RT-PCR control). It counts as cell-based, human. The note with it: antisense-treated colonies. The procedure:
To provide unambiguous evidence of the elimination of Philadelphia chromosome blast cells, residual cells from Example 3 were evaluated for the expression of bcr-abl transcripts, since the levels of this transcript should reflect the number of surviving leukemia cells. For this purpose, total RNA was isolated from a pool of colonies from Example 3, and the levels of bcr-abl transcripts were evaluated. Levels of β2 -microglobulin transcript were also determined as a control. The β2 -microglobulin gene is expressed independent of cell cycle.
Accordingly, bcr-abl and β2 -microglobulin transcripts were reverse-transcribed and amplified in the presence of specific primers and Taq polymerase as described by Rappollee, Science 241, 708-712 (1988). The amplification products were separated on a 2% agarose gel and transferred to a nitrocellulose filter, which was hybridized with a synthetic 40-nucleotide c-abl fragment and a 40-nucleotide β2 -microglobulin fragment and labeled with [γ-^32 P]-ATP and polynucleotide kinase. The c-abl probe recognizes the amplified 257-nucleotide sequence of FIG. 1, which contains the L-6 type bcr-abl junction. The β2 -microglobulin probe recognizes the 195-nucleotide sequence contained within 5' and 3' β2 -microglobulin primers (Id.; Suggs et al., Proc. Natl. Acad. Sci. U.S.A. 78, 6613 (1981)).

The test system of data set [4] is 1:1 mix of normal MNC and CML blast crisis cells. Briefly: Morphology (Giemsa staining) of cells from residual colonies. It counts as cell-based, human.
Excerpt: as §1

Data set [5] concerns BV173 cells. Put plainly: Macroscopic examination / disease state of leukemic SCID mice. It counts as in vivo, SCID mice (human leukemic cells). The procedure:
Injection of the mice with BV173 cells induces a disease closely resembling that in human leukemia patients.
(§2) To determine whether synthetic phosphorothioate oligodeoxynucleotides targeted against the bcr-abl junction of […] cells would modify the disease process in SCID mice. SCID mice were injected with 10^6 BV173 cells. The mice then received 1 mg of sense (ATCAATAAGG AAGCCCTTCAGCG, SEQ ID NO:34) or antisense ([…] ATTGAT, SEQ ID NO:29) b2/a2 bcr-abl phosphorothioate oligodeoxynucleotides (pyrogen leven <1 Eu/mg; 0.2 ml in Iscove modified Dulbecco medium in 5-10 seconds) intravenously for each of 9 consecutive days, beginning either 7 or 21 days after introducing 10^6 BV173 cells. Control mice received the diluent (iscove's modified Dulbecco medium) only. These time points approximate distinct disease stages in humans.

The subject of data set [6] is bcr-abl (b2/a2) transcripts. Briefly: RT-PCR of bcr-abl transcripts in tissues of leukemic SCID mice. It counts as in vivo, SCID mice (human leukemic cells). The procedure:
According to a third assay, the extent of leukemic disease was assessed by chain RT-PCR to monitor the expression of b2/a2 transcripts (assay sensitivity=[…]) in total RNA isolated from bone marrow cells, splenocytes, peripheral blood leukocytes, liver, lung and brain tissues. Depending on the number of BV173 cells injected, various numbers of leukemic cells were detected by clonogenic assay and RT-PCR in murine tissues, 3 and 6 weeks after injection. A few days before the expected death of leukemic SCID mice, approximately 80, 65, and 10% cALLA-positive cells were detected in bone marrow cells, splenocytes and peripheral blood leukocytes, respectively.
as §2
At 7 (+7) and 21 (+21) days after injecting SCID mice with 10^6 BV173 cells, single cell suspensions were prepared from various tissues. After lysing red cells with 0.83% NH4 Cl buffered with 0.17 mM Tris-HCl, pH 7.4, total RNA was extracted as described (Chomczynski and Sacchi, Anal. Biochem. 162, 156 (1987)) and the suspension was divided into two equal aliquots. Bcr-abl and β-actin transcripts were reverse-transcribed and amplified with specific primers and Taq polymerase as described by Szczylik et al., Science 253, 562 (1991). Amplification products were separated on a 2% agarose gel, transferred to a nitrocellulose filter and hybridized with a synthetic 40-base c-abl fragment or 20-base β-actinfragment end-labeled with [γ^32 -P]-ATP and polynucleotide kinase. The c-abl probe recognizes an amplified 257-bp sequence containing the bcr-abl junction: the β-actin probe recognizes a 209-bp fragment, contained within the 5' and 3' β-actin primers (Tokunaga et al., Nucleic Acids Res. 14, 2829 (1986)).

“Also recorded” adds a separate entry of the source.

For the substance “SEQ ID NO:3: synthetic 18-mer GAAGGGCTTC TTCCTTAT specific for the 18-nucleotide target sequence of the L-6 bcr-abl junction (antisense GAAGGGCTTCTTCCTTAT; chemistry not given here)”, in data set [1], the “Colonies or Clusters, CFU-GM” value was 253 ± 35 colonies or clusters. Further, the “Colonies or Clusters, CFU-L (colonies formed from CML blast crisis cells)” value in data set [2] (Table 3, 40 μg/ml at 0 h, 20 μg/ml 18 h later, 12 days, mean ± SD, control 806 ± 70) is given as 180 ± 14 colonies or clusters. For the same substance, the “number of colonies arising from the CML blast crisis cells (CFU-L)” value in data set [2] (after twelve days in culture) is “much lower than that arising in the presence of the mismatched bcr-abl oligomer”. In data set [3], the “expression of β2-microglobulin” value is “clearly detectable”. The “morphology of cells isolated from residual colonies” value in data set [4] is on record as “largely consisted of differentiating elements”.
“SEQ ID NO:34: phosphorothioate sense sequence ATCAATAAGGAAGCCCTTCAGCG (23-mer b2a2 sense) (sense ATCAATAAGGAAGCCCTTCAGCG; all phosphorothioate, sugars by position and methylation of C not given here)”: the “evidence of active leukemic disease process” value in data set [5] (1 mg/mouse x9 i.v. from day 7 or 21) was “macroscopic, microscopic and molecular evidence of an active leukemic disease process”. Besides, the “macroscopic examination: leukemic nodules in liver and kidneys” value in data set [5] (from day +7, 26 days after last treatment (6 weeks)) is “in addition to spleen enlargement, the presence of distinct leukemic nodules in liver and kidneys”. Further, in data set [5] (from day +21, 12 days after last treatment (6 weeks)), the “splenomegaly and leukemic metastases in the liver” value was “splenomegaly and leukemic metastases in the liver were detected”. Further, the “macroscopic examination: metastases / leukemic nodules in liver, kidneys, splenomegaly” value in data set [5] (from day +21, 26 days after treatment (8 weeks), FIG. 11) is “numerous metastases in the liver (FIG. 11A), a few in the kidneys, and splenomegaly; also recorded: Numerous distinct leukemic nodules are visible in the liver”. The “bcr-abl transcripts in tissues” value is “bcr-abl transcripts in each of the tissues analyzed except brain” in data set [6] (from day +7, 12 days after last treatment (4 weeks), blood, spleen, bone marrow, liver, lung, brain); “Bcr-abl transcripts were detected” in data set [6] (from day +21, 12 days after last treatment (6 weeks), blood, spleen, bone marrow, liver, lungs, brain); “readily detectable” in data set [6] (from day +21, 26 days after treatment (8 weeks)). Besides, in data set [6] (from day +7, 26 days after last treatment (6 weeks), blood leukocytes, spleen, bone marrow, liver, lung, brain), the “bcr-abl (b2/a2) transcripts in tissues” value was “readily detected in each tissue”.

For the origin of these results see US5652222A, “Selective inhibition of leukemic cell proliferation by bcr-abl antisense oligonucleotides” (Temple University-of The Commonwealth System of Higher …, priority 1993, dated 1997).
